From US9072756B2, “Methods and compositions for increasing the efficacy of an agent that directly or indirectly affects a muscarinic receptor through administration of a pyrophosphate analog” (HealthPartners Research Foundation, priority 2000, dated 2015)
Where two headings read alike, the source gives them in different places.

How the values were obtained:
[1] = test system: muscarinic acetylcholine receptor (mAChR); experiment: Protection of mAChR from inactivation by the endogenous LMW inhibitor, [3H]QNB (antagonist) binding; parameters: species or system human; details: for protection of the mAChR from inactivation by the LMW inhibitor (in words): FIGS. 4-7, 15, 17, 19; for EC50: read-out: concentration that provides 50% protection of the mAChR
[2] = target: muscarinic acetylcholine receptor (mAChR); details: read-out: concentration that provides 50% protection of the mAChR from damage by PbCl2, 3H-QNB binding, FIG. 20
[3] = target: muscarinic acetylcholine receptor (mAChR); experiment: Protection of mAChR from inactivation by heme and peroxide, [3H]QNB (antagonist) binding; parameters: species or system human; details: 3H-QNB binding, FIG. 16
[4] = LMW inhibitor, 3H-QNB binding, FIGS. 11, 13, 14

| Compound | protection of the mAChR from inactivation by the LMW inhibitor (in words) ([1]; LMW inhibitor, 3H-QNB binding) | EC50 [1, 4] [nM] | other results |
| --- | --- | --- | --- |
| C=CC1=C(C)/C(=C/C2=NC(=C\c3[nH]c(/C=C4\NC(=O)C(C)=C4C=C)c(C)c3CCC(=O)O)/C(CCC(=O)O)=C2C)NC1=O [biliverdin] | – | 3000 | – |
| CC(C)c1cc2c(c(O)c1O)[C@@]13CCCC(C)(C)[C@@H]1C[C@@H]2OC3=O [carnosol] | – | – | protection of the mAChR from inactivation ([1]; at 1 μM, LMW inhibitor, 3H-QNB binding, FIG. 12): 100% |
| O=c1c(O)c(-c2cc(O)c(O)c(O)c2)oc2cc(O)cc(O)c12 [myricetin] | – | 400 | – |
| O=P(O)(O)OP(=O)(O)O [pyrophosphate] | – | – | EC50 [2]: ~57000 nM; EC50 ([1]; inactivation by LMW inhibitor or heme and peroxide, loss of antagonist (3H-QNB) and agonist (3H-Oxotremorine M) binding, FIGS. 1-3, not specified further): ~1000 nM |
| O=c1c(O)c(-c2ccc(O)c(O)c2)oc2cc(O)cc(O)c12 [quercetin] | – | 240 | – |

More lines, main results first:

| protection of the mAChR from inactivation by the LMW inhibitor (in words) ([1]; LMW inhibitor, 3H-QNB binding) | EC50 [1, 4] [nM] | Compound | other results |
| --- | --- | --- | --- |
| protect the mAChR from inactivation | – | Nc1ncnc2c1ncn2[C@@H]1O[C@H](COP(=O)(O)OP(=O)(O)NP(=O)(O)O)[C@@H](O)[C@H]1O [adenylylimidodiphosphate] | – |
| protect the mAChR from inactivation | – | O=P(O)(O)OP(=O)(O)OP(=O)(O)O [tripolyphosphate] | – |
| protected the mAChR from inactivation | – | catalase | amount that provided 50% protection from inactivation by heme and peroxide [3]: 0.34 units/mL |
